From US10786485B1, “Charged ion channel blockers and methods for use” (Nocion Therapeutics, Inc., priority 2019, dated 2020)
Where a name gives a salt, the structure may show the parent alone.

How the values were obtained:
[1] = target: T1, NaV1.7 (Homo sapiens, UniProt Q15858); assay: Whole cell patch clamp, external block of Nav1.7 current; assay type: cell-based; conditions: test concentration of 30 μM; compound in external solution for 5 minutes; 5 Hz stimulation; read-out: Nav1.7 extracellular inhibition
T1 construct: expressed in transfected cells; host or cells: tetracycline-inducible cell line kept under hygromycin and blasticidin
Procedure: NaV1.7 was expressed upon induction with tetracycline. Cells were cultured in DMEM containing 10% dialyzed Fetal Bovine Serum (VWR, Radnor, Pa.), 1% Glutamax (VWR, Radnor, Pa.), 1% Penicillin-Streptomycin (VWR, Radnor, Pa.), 100 mg/L Hygromycin (Thermo Fisher Scientific, Waltham, Mass. and 5 mg/L Blasticidin (Alfa Aesar, Haverhill, Mass.). Cells were grown and maintained at 37° C. in a humidified environment containing 10% CO2 in air. Cells were detached from the culture flask for passage and harvested using 0.05% Trypsin-EDTA (Thermo Fisher Scientific, Waltham, Mass.). To induce NaV1.7, cells were induced with tetracycline (0.1-1 μg/mL, IBI Scientific, Peosta, Iowa) the day before recording and plated onto 24-well plates. […] For one 24-well plate, 2 mL of cell suspension was mixed with 23 mL of fresh growth media and 0.1-1 μg/mL tetracycline added. 1 ml of mixed media with cells was then added to each well of a 24-well plate, with a 12 mm coverslip already placed in the bottom of the well. Cells were then incubated in 37° C. and 10% CO2 overnight. The intracellular solution contained the following (in mM) CsCl 135, NaCl 10, EGTA 10, HEPES 10, MgCl2 2, adjusted to pH 7.2 with CsOH. The external solution was a normal Ringer solution containing (in mM) NaCl 155, HEPES 10, glucose 10, KCl 3.5, CaCl2 1.5, MgCl2 1 adjusted to pH 7.4 with NaOH. CsCl is from Alfa Aesar, Haverhill, Mass. All other chemicals are from Sigma-Aldrich, St. Louis, Mo. In order to test the degree of internal block by test compounds the compounds were dissolved in internal solution at the indicated test concentration. […] In order to test the degree of external block by test compounds the compounds were dissolved in external solution at the indicated test concentration. 18-24 hours after cells were induced with tetracycline, coverslips were placed into a chamber filled with Normal Ringer solution at room temperature and the chamber placed on a microscope. Pipettes were pulled from borosilicate glass on a P97 puller (Sutter Instrument, Novato, Calif.) and polished with a MF-830 Microforge (Narishige International USA, Inc, Amityville, N.Y.) to have a resistance of 1.5-2.5 MΩ when filled with CsCl internal solution at room temperature. Healthy cells (those that are round and translucent with no visible blemishes) were chosen for seal formation. A seal was formed between the pipette and the cell, and a brief pulse of suction was used to “break in” and establish the whole-cell configuration. The membrane potential was held at −100 mV before the voltage protocol began. Only cells with series resistance between 1.5-5 MΩ were retained for analysis. The voltage protocol was as follows: Cells were held at −100 mV for 12 ms followed by a hyperpolarizing step to −105 mV for 12 ms to monitor the leak. Cells were then stepped back to −100 mV for 40 ms. Cells were then depolarized to −20 mV for 10 ms and then returned to −100 mV for 26 ms (The FIGURE). Once the recording was started, the voltage protocol was run at 30 second intervals for 5 minutes to get a stable baseline. This is followed by 5 Hz stimulation of the same voltage protocol run until the end of experiment. […] Currents were recorded using PatchMaster software with Heka EPC10 (HEKA Electronics, Lambrecht, Germany). […] The data was plotted using the Patchmaster software (HEKA Electronics, Lambrecht, Germany) and analyzed by plotting the minimum current during the voltage step to −20 mV (peak inward current) as a function of time. […]

[2] = target: T1, NaV1.7; assay: Whole cell patch clamp, internal block of Nav1.7 current; assay type: cell-based; conditions: test concentration of 10 μM; compound dissolved in internal solution; 5 Hz stimulation; read-out: Nav1.7 intracellular inhibition
Procedure: NaV1.7 was expressed upon induction with tetracycline. Cells were cultured in DMEM containing 10% dialyzed Fetal Bovine Serum (VWR, Radnor, Pa.), 1% Glutamax (VWR, Radnor, Pa.), 1% Penicillin-Streptomycin (VWR, Radnor, Pa.), 100 mg/L Hygromycin (Thermo Fisher Scientific, Waltham, Mass. and 5 mg/L Blasticidin (Alfa Aesar, Haverhill, Mass.). Cells were grown and maintained at 37° C. in a humidified environment containing 10% CO2 in air. Cells were detached from the culture flask for passage and harvested using 0.05% Trypsin-EDTA (Thermo Fisher Scientific, Waltham, Mass.). To induce NaV1.7, cells were induced with tetracycline (0.1-1 μg/mL, IBI Scientific, Peosta, Iowa) the day before recording and plated onto 24-well plates. […] For one 24-well plate, 2 mL of cell suspension was mixed with 23 mL of fresh growth media and 0.1-1 μg/mL tetracycline added. 1 ml of mixed media with cells was then added to each well of a 24-well plate, with a 12 mm coverslip already placed in the bottom of the well. Cells were then incubated in 37° C. and 10% CO2 overnight. The intracellular solution contained the following (in mM) CsCl 135, NaCl 10, EGTA 10, HEPES 10, MgCl2 2, adjusted to pH 7.2 with CsOH. The external solution was a normal Ringer solution containing (in mM) NaCl 155, HEPES 10, glucose 10, KCl 3.5, CaCl2 1.5, MgCl2 1 adjusted to pH 7.4 with NaOH. CsCl is from Alfa Aesar, Haverhill, Mass. All other chemicals are from Sigma-Aldrich, St. Louis, Mo. In order to test the degree of internal block by test compounds the compounds were dissolved in internal solution at the indicated test concentration. […] In order to test the degree of external block by test compounds the compounds were dissolved in external solution at the indicated test concentration. 18-24 hours after cells were induced with tetracycline, coverslips were placed into a chamber filled with Normal Ringer solution at room temperature and the chamber placed on a microscope. Pipettes were pulled from borosilicate glass on a P97 puller (Sutter Instrument, Novato, Calif.) and polished with a MF-830 Microforge (Narishige International USA, Inc, Amityville, N.Y.) to have a resistance of 1.5-2.5 MΩ when filled with CsCl internal solution at room temperature. Healthy cells (those that are round and translucent with no visible blemishes) were chosen for seal formation. A seal was formed between the pipette and the cell, and a brief pulse of suction was used to “break in” and establish the whole-cell configuration. The membrane potential was held at −100 mV before the voltage protocol began. Only cells with series resistance between 1.5-5 MΩ were retained for analysis. The voltage protocol was as follows: Cells were held at −100 mV for 12 ms followed by a hyperpolarizing step to −105 mV for 12 ms to monitor the leak. Cells were then stepped back to −100 mV for 40 ms. Cells were then depolarized to −20 mV for 10 ms and then returned to −100 mV for 26 ms (The FIGURE). Once the recording was started, the voltage protocol was run at 30 second intervals for 5 minutes to get a stable baseline. […] Currents were recorded using PatchMaster software with Heka EPC10 (HEKA Electronics, Lambrecht, Germany). […] The data was plotted using the Patchmaster software (HEKA Electronics, Lambrecht, Germany) and analyzed by plotting the minimum current during the voltage step to −20 mV (peak inward current) as a function of time. […]

[3] = PAMPA membrane permeability assay; assay type: in vitro ADME; conditions: GIT lipid, buffer pH 7.4, incubated 4 hours
Procedure: The PAMPA assay (pION, Inc., Woburn Mass.) was used to determine the ability of compounds of the invention to cross an artificial lipid membrane by passive diffusion. Test compounds were dissolved in DMSO (10 mM) and diluted 200-fold in buffer (pION Inc., pH 7.4) to provide 50 uM stock solutions. Buffer (150 μL) was added to a UV blank plate and stock solutions (150 μL) were transferred to a UV reference plate. The blank and reference spectrum were read using a spectrophotometer. Stock solutions (200 μL) were added to the donor plate of the PAMPA sandwich plate and an accept plate painted with GIT lipid (pION Inc, 5 μL) was placed on top. Buffer (200 μL) was added to the acceptor plate and the PAMPA sandwich plate was incubated for 4 hours. Aliquots (150 μL) from the acceptor plate were added to a UV plate and read as acceptor spectrum. Aliquots (150 μL) of the donor solutions were added to a UV analysis plate and read as donor spectrum. The permeability coefficient of test compounds was calculated using PAMPA Explorer™ software (version 3.5.0.4) based on the AUC of the reference plate, the donor plate, and the acceptor plate.

T1 sequence (Q15858 whole entry): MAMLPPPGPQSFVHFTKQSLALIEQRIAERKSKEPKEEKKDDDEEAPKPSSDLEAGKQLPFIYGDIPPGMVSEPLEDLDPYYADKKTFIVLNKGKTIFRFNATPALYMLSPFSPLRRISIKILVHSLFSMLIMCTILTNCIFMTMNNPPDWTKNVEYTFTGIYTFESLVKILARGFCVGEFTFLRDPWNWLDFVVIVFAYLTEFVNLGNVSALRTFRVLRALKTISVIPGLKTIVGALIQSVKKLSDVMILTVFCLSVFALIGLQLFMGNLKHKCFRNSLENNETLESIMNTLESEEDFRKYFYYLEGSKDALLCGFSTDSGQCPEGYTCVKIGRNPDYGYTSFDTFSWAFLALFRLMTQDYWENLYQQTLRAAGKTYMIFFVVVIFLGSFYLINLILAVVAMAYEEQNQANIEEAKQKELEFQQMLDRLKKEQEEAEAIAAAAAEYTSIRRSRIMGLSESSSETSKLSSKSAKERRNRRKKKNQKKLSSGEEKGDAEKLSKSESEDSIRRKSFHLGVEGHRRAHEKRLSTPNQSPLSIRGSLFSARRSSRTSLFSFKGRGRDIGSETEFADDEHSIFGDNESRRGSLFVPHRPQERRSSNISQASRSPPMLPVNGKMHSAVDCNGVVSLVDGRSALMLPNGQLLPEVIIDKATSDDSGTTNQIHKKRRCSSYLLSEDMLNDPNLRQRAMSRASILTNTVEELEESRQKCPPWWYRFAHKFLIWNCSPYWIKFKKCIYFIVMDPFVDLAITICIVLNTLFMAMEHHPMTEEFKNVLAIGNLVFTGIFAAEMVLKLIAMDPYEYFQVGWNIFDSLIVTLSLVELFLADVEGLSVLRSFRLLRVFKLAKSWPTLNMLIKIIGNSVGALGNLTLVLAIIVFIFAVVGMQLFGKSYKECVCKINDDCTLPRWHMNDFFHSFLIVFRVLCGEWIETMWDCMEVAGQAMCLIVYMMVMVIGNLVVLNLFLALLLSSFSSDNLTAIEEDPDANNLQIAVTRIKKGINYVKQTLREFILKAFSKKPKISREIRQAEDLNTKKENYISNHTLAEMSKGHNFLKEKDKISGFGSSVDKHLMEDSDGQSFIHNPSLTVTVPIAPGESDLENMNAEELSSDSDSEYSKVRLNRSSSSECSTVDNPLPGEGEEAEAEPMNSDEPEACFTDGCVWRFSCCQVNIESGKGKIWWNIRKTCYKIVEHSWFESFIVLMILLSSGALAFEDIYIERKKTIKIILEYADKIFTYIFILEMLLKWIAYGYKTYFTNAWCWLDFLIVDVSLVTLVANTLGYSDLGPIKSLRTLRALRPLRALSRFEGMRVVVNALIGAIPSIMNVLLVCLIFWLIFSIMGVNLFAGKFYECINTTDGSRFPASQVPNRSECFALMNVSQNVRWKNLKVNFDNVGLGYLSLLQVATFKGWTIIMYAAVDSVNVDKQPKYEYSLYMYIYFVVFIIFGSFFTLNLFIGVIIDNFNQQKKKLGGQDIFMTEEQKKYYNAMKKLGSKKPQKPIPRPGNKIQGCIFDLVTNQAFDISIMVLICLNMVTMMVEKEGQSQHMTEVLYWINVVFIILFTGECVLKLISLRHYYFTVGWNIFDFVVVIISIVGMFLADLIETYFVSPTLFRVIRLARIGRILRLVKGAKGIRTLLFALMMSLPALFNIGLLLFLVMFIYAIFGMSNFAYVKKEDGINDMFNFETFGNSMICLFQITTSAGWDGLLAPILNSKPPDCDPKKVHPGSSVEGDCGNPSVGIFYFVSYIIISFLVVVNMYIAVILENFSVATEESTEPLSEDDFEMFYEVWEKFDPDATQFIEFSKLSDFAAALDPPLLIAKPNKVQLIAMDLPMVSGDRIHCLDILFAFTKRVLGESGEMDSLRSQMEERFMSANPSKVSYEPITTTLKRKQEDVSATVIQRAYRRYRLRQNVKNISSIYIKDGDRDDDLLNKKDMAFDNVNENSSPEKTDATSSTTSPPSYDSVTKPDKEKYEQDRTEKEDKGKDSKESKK

Structure (SMILES)	inhibition at 30 µM [1] [%]	inhibition at 10 µM [2] [%]	Papp at 4 h, 50 µM [3] [×10⁻⁶ cm/s]
Cc1cccc(C)c1NC(=O)C[n+]1cccn1-c1ccccc1 [4′A, 2-(2-((2,6-dimethylphenyl)amino)-2-oxoethyl)-1-phenyl-1H-pyrazol-2-ium Formate]	< 25	> 65	
CCNC(=O)Cn1ccc[n+]1CC(=O)Nc1c(C)cccc1C.[Br-] [Compound 5′A, 2-(2-((2,6-dimethylphenyl)amino)-2-oxoethyl)-1-(2-(ethylamino)-2-oxoethyl)-1H-pyrazol-2-ium bromide]	< 25	> 65	≤ 1.2

Second part, the compound after the results:

inhibition at 30 µM [1] [%]	inhibition at 10 µM [2] [%]	Papp at 4 h, 50 µM [3] [×10⁻⁶ cm/s]	Structure (SMILES)
< 25	> 65		Cc1cn(C)[n+](CC(=O)Nc2c(C)cccc2C)c1 [1′A, 2-(2-((2,6-dimethylphenyl)amino)-2-oxoethyl)-1,4-dimethyl-1H-pyrazol-2-ium bromide]
< 25	> 65	≤ 1.2	Cc1cccc(C)c1NC(=O)C[n+]1cccn1CC(C)C.[Br-] [Compound 2′A, 2-(2-((2,6-dimethylphenyl)amino)-2-oxoethyl)-1-isobutyl-1H-pyrazol-2-ium bromide]
< 25	> 65	≤ 1.2	Cc1cccc(C)c1NC(=O)C[n+]1cccn1C1CCCCC1.[Br-] [Compound 3′A, 1-cyclohexyl-2-(2-((2,6-dimethylphenyl)amino)-2-oxoethyl)-1H-pyrazol-2-ium bromide]
